The results in this text go back to patent EP1070454A1, “TRANSGENIC ANIMAL SHOWING VASCULAR TISSUE-SPECIFIC EXPRESSION OF ANGIOTENSIN II2 RECEPTOR” (SUNTORY LIMITED, priority 1999, dated 2000).

The subject of one assay is isolated aorta. The assay can be described thus: Angiotensin II-induced contraction of isolated aorta (rings in myograph). The settings on record: for Angiotensin II-induced vasoconstriction: isolated abdominal aorta rings, mean ± SE. Type of assay: cell-based, mice. How it is done: AngII-induced contraction of isolated aortic vessels was compared between transgenic and wild-type mice. After abdominal incision of each mouse, the abdominal aorta was isolated and cut into rings, which were then suspended under a constant tension of 0.8 g in a myograph. Change of vascular tension after addition of AngII was recorded under perfusion with Tyrode's solution (137 mmol/L NaCl, 2.7 mmol/L KCl, 1.8 mmol/L CaCl2, 1.1 mmol/L MgCl2, 0.42 mmol/L NaH2PO4, 12 mmol/L NaHCO3 and 5.7 mmol/L glucose, pH 7.4) (Table 2). AngII-induced contraction of isolated aorta increased by about 24% in AT2-TG mice in the presence of an AT2 receptor inhibitor (PD123319, 1-[[4-(dimethylamino)-3-methylphenyl]methyl]-5-(diphenylacetyl)-4,5,6,7-tetrahydro-1H-imidazo[4,5-c]pyridine-6-carboxylic acid ditrifluoroacetate monohydrate available from PARKE-DAVIS, Ann Arbor, Michigan) as compared with the contraction in its absence.

For assay [1], the system named is cGMP production in isolated aorta. The assay can be described thus: Angiotensin II-induced cGMP production in isolated aorta (radioimmunoassay). Type of assay: cell-based, mice. The settings on record: for Angiotensin II-induced cGMP production in isolated aorta: mean ± SE; for inhibition of the increase of cGMP production: increase caused by AngII + CV11974. An excerpt:
Then, AngII-induced cGMP production in isolated aortic vessels was compared between transgenic and wild-type mice in order to examine whether or not vasodilator action of AngII is mediated by cGMP. After abdominal incision of each mouse, the abdominal aorta was isolated and the aortic extract homogenized by sonication in ethanol was dried in nitrogen and treated with an acetylation reagent (acetic anhydride : triethylamine = 1:2) and then assayed for cGMP level by radioimmunoassay using an anti cGMP antibody (Table 3). […]

The subject of the next assay is kininogenase. The assay is described as follows: Angiotensin II-induced kininogenase activity in isolated aorta (radioimmunoassay). Type of assay: biochemical, mice. As to conditions: for Angiotensin II-induced kininogenase activity in isolated aorta: mean ± SE; for inhibition of the increase of kininogenase activity: increase caused by AngII + CV11974. How it is done:
Then, the activity of kininogenase, which is an enzyme for producing bradykinin from kinonogen, was compared between transgenic and wild-type mice in isolated aortic vessels. After abdominal incision of each mouse, the abdominal aorta was isolated and the aortic extract homogenized in the presence of 0.1 M phosphate buffer (0.2% bacitracin, 3 mM O-phenanthroline, 30 mM EDTA-Na2) containing a protease inhibitor was dried in nitrogen under 90% ethanol. The dried extract was solubilized in a buffer containing an angiotensin-converting enzyme inhibitor and tested for kininogenase activity by radioimmunoassay of […] produced from bovine kininogen as a substrate (Table 4).

Assay [2] can be described thus: Blood pressure change after continuous administration of angiotensin II (tail-cuff method). Type of assay: in vivo, mice. As to conditions: for Average blood pressure under administration of angiotensin II: AngII 0.7 mg/day/kg via osmotic pump, mean ± SE. How it is done: Change of average awaking blood pressure induced by chronic administration of angiotensin II (AngII) was compared between transgenic and wild-type mice. AngII (0.7 mg/day/kg) was chronically administered via an osmotic pump embedded in the back of each mouse, and the blood pressure of the mouse was measured at the tail by the tail-cuff method (Table 1). […]

The mark [3] stands for this setting: AT2-TG mice, in the presence of AngII + CV11974 (AT2 receptor stimulation).
Setting [4] is: wild-type mice, in the presence of AngII + CV11974 (AT2 receptor stimulation).

For the molecule “Angiotensin II [AngII, vasopressor whose action is mediated through receptor subtypes AT1 and AT2]”, the “Angiotensin II-induced vasoconstriction” value is recorded as 100±0.2 % of control in the assay with isolated aorta (AT2-TG mice, without or with PD123319) and 100±0.7 % of control with isolated aorta (Wild-type mice, without or with PD123319). For the same molecule, the “Angiotensin II-induced cGMP production in isolated aorta” value amounted to 330±41 fmol/gwt in assay [1] (AT2-TG mice) and 328±14 fmol/gwt in assay [1] (Wild-type mice). Moreover, the “Angiotensin II-induced kininogenase activity in isolated aorta” value is recorded as 0.76±0.07 ng kinin/mg/h with kininogenase (AT2-TG mice) and 0.68±0.11 ng kinin/mg/h in the assay on kininogenase (Wild-type mice). For the same molecule, the “Average blood pressure under administration of angiotensin II” value in assay [2] (AT2-TG mice, Day 0) is 85±1.8 mmHg; in assay [2] (AT2-TG mice, Day 4), 84±2.7 mmHg; in assay [2] (AT2-TG mice, Day 7) it was 87±2.1 mmHg; in assay [2] (AT2-TG mice, Day 14), 89±2.6 mmHg; in assay [2] (Wild-type mice, Day 0) it was 83±2.7 mmHg; in assay [2] (Wild-type mice, Day 4), 94±2.1 mmHg. Besides, the “Average blood pressure under administration of angiotensin II” value in assay [2] (Wild-type mice, Day 7) came to 114±2.8 mmHg; in assay [2] (Wild-type mice, Day 14), 121±3.2 mmHg. Also, the blood pressure change entry in assay [2] (AT2-TG mice, after 2 weeks, AngII 0.7 mg/day/kg) is listed as “no blood pressure change”. For the same molecule, the “increase in average blood pressure” value in assay [2] (wild-type mice, after 2 weeks, AngII 0.7 mg/day/kg) came out at 38 mmHg.

Take `COC(=O)[C@@H](N)CCCNC(=N)N[N+](=O)[O-]` [L-NAME]: the “inhibition of the increase of cGMP production” value in assay [1] (AT2-TG mice) was “completely inhibited”. Also, the “inhibition of the increase of kininogenase activity” value with kininogenase (AT2-TG mice) is on record as “completely inhibited”.

For icatibant, the “inhibition of the increase of cGMP production” value in assay [1] (AT2-TG mice) is “completely inhibited”. In addition, in the assay on kininogenase (AT2-TG mice), the “inhibition of the increase of kininogenase activity” value is reported as “completely inhibited”.

As for `CCOc1nc2cccc(C(=O)O)c2n1Cc1ccc(-c2ccccc2-c2nnn[nH]2)cc1` (racemic) [CV11974], in assay [1] (setting [3]), the “increase of amount of cGMP produced in isolated aorta” value turned out to be 105%. Further, the “change of amount of cGMP produced in isolated aorta” value in assay [1] (setting [4]) is “did not change”. The “increase of kininogenase activity in isolated aorta” value in the assay on kininogenase (setting [3]) was 150%. Moreover, the “change of kininogenase activity in isolated aorta” value in the assay with kininogenase (setting [4]) is “did not change”.

Regarding `Cc1cc(Cn2cnc3c2CC(C(=O)O)N(C(=O)C(c2ccccc2)c2ccccc2)C3)ccc1N(C)C.O.O=C(O)C(F)(F)F.O=C(O)C(F)(F)F` (stereo not shown) [PD123319, 1-[[4-(dimethylamino)-3-methylphenyl]methyl]-5-(diphenylacetyl)-4,5,6,7-tetrahydro-1H-imidazo[4,5-c]pyridine-6-carboxylic acid ditrifluoroacetate monohydrate], the “increase of AngII-induced contraction of isolated aorta” value in the assay on isolated aorta (AT2-TG mice, in the presence of PD123319 compared with its absence) is “about 24%”. Moreover, the “Angiotensin II-induced vasoconstriction” value in the assay with isolated aorta (AT2-TG mice, with PD123319, relative to its absence) is listed as 124±2.1 % of control; with isolated aorta (Wild-type mice, with PD123319, relative to its absence), 98±1.1 % of control. Also, the “change of AngII-induced contraction” value in the assay with isolated aorta (wild-type mice, in the presence of PD123319) is listed as “no contraction change”.
